Like-named read-outs stand apart in the source and are kept apart here.
Tests used:
[1] = test system: cellular AMPK; assay: p-ACC(Ser79) ELISA in K562 cell lysates (glucose-free media, 2-DG); type: cell-based; conditions: K562, dose response, FIG. 2B
Procedure: FIGS. 2A and 2B are a series of graphs showing the effects of compounds of the present disclosure on cellular levels of p-ACC(Ser79) in K562 cells. FIG. 2A Quantitative ELISA determination of p-ACC(Ser79) levels in K562 lysates (1.0 mg mL^−1 total protein) following growth in glucose-free media for 24 h, 2-DG (12 mM) treatment for 1 h followed by treatment with inhibitor compounds at 5.0 μM for 2 h. Relative p-ACC levels are reported as a percentage of levels resultant from DMSO control treatment. […] Cells were collected, washed with PBS and lysed on ice in lysis buffer containing 1% Triton X (Cell Signaling). Lysates were someated (1×5 seconds) and centrifuged for 10 minutes at 10,000 rpm and 4° C., and the protein concentration in supernatants was determined by Lowry assay. Lysates were diluted with ELISA PathScan® sample diluent to a final volume of 100 μL and protein concentration of 1.0 mg/ml prior to use. The concentration of p-ACC (Ser79) was determined using an enzyme-linked immunosorbent assay according to recommended protocol (Cell Signaling, ELISA PathScan® phospho-Acetyl-CoA Carboxylase (Ser79)) and expressed as a relative percentage of the DMSO control.
The AMPK substrate ACC is used as a biomarker for the relative activity of AMPK, and the levels of p-ACC(Ser79) were measured by ELISA in the absence or presence of the compounds to determine the compounds' effects on cellular AMPK activity. The presence of total AMPK, p-AMPK, total ACC, and p-ACC was measured by Western blot in a panel of leukemic cell lines grown in glucoe competent or glucose-free media. […] The cell lysates from K562 cells grown in glucose-free media in the presence 2-DG and treated with compounds of the present disclosure were analyzed by the p-ACC(Ser79) ELISA to determine the effect of the compounds on cellular AMPK activity.

[2] = molecular target: AMPKα1 (Homo sapiens (Human), UniProt Q13131); assay: LANCE Eu TR-FRET recombinant kinase assay, AMPK(α1); type: biochemical
Sequence of AMPKα1 (Q13131 whole entry, looked up): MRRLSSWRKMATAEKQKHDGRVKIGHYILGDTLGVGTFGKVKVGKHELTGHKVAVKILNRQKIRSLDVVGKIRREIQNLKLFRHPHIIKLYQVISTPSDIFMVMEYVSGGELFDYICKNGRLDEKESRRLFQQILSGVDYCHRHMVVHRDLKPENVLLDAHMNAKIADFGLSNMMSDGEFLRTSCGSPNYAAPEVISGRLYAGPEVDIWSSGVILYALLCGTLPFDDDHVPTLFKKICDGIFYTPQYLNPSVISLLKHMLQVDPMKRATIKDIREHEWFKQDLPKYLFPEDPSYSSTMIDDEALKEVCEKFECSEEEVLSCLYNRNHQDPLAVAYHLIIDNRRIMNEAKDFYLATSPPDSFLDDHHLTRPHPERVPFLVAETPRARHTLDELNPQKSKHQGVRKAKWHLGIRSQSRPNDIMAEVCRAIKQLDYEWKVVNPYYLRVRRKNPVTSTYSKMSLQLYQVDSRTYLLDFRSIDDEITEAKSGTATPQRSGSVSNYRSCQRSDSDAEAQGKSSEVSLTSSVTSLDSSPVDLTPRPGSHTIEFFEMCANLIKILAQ
Sequence of AMPKα1 (Q9Y478 whole entry partner, looked up): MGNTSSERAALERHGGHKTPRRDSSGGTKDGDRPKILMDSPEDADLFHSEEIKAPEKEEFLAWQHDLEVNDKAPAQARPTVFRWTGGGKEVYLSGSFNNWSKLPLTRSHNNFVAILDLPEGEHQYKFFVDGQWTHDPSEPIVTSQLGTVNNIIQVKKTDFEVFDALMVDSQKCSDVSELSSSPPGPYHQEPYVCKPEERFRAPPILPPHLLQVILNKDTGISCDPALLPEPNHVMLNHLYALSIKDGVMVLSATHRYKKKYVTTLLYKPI
Sequence of AMPKα1 (P54619 whole entry partner, looked up): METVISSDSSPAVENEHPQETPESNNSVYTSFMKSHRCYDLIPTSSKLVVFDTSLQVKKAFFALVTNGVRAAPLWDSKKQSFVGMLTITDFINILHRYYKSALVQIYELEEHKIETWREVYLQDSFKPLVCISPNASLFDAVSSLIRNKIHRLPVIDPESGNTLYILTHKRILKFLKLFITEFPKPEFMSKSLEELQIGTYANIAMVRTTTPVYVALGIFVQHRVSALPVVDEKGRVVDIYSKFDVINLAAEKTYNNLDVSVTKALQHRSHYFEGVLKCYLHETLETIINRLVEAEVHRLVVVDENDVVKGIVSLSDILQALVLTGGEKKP
Procedure: (§1) Assays were performed at 25° C. in a reaction mixture consisting of 2.5 μL serially diluted inhibitor solution, 2.5 μL kinase, 2.5 μL ATP and 2.5 μL substrate. Reagents were incubated for 1 hr before the reaction was halted through the addition of EDTA (10 mM) after which Eu anti-phospho-CREB (Ser133) antibody (PerkinElmer) was added at a final concentration of 2 nM for 1 hr. […] (n=3)).

[3] = molecular target: AMPK(α2) (Homo sapiens (Human), UniProt P54646); assay: LANCE Eu TR-FRET recombinant kinase assay, AMPK(α2); type: biochemical; conditions: mean±S.D. (n=3); ATP 20 μM
Sequence of AMPK(α2) (P54646 whole entry, looked up): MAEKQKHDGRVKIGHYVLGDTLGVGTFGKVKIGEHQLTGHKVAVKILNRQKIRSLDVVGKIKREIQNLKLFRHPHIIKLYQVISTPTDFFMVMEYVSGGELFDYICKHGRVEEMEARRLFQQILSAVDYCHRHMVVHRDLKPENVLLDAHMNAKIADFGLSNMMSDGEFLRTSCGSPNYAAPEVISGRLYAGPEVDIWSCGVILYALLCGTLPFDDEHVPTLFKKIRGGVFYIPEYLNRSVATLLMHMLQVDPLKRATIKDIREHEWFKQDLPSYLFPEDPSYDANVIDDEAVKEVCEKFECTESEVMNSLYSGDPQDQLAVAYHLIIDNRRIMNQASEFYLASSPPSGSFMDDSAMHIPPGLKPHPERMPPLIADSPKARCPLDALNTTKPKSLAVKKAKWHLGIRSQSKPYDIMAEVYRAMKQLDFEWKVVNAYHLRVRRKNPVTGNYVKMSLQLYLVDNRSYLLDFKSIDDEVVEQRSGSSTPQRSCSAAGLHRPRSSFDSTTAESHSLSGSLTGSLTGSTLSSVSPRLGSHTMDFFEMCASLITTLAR
Sequence of AMPK(α2) (Q9Y478 whole entry partner, looked up): as the sequence (Q9Y478 whole entry partner, looked up) above
Sequence of AMPK(α2) (P54619 whole entry partner, looked up): as the sequence (P54619 whole entry partner, looked up) above
Procedure: as §1

[4] = test system: K562 cells; assay: MTS cell viability assay in K562 cells; type: cell-based; conditions: Homo sapiens; K562, RPMI-1640; Table 2 head prints 24 h, method and FIG. 3A legend 72 hours
Procedure: (§2) The cells were incubated with inhibitors for 24 hours, before the plates were equilibrated to room temperature and 100 μL CellTiter-Glo reagent was added. […] Luminescent signal was plotted against the inhibitor log-dose and evaluated by a non-linear regression to determine half-maximal effect concentration (EC50) values, where possible.
An MTS assay was utilized to assess the effect of inhibitors on K562 viability.

[5] = test system: K562 cells; assay: CellTox green cellular toxicity assay in K562 cells (glucose-free media); type: cell-based; conditions: Homo sapiens
Excerpt: Fluorescence was plotted against inhibitor log-dose and evaluated by a non-linear regression to determine half-maximal effect concentration (EC50) values, where possible.
(§3) In order to increase the reliance of the cells on AMPK function, assays were needed that could be performed under glucose-free conditions. Therefore in order to elucidate the mechanism of action of the AMPK inhibitors, a CellTiter-Glo cell viability assay (FIG. 3B), which provide a readout proportional to ATP concentration, and thus, cellular viability, as well as a CellTox green cellular toxicity assay (FIG. 3C and FIG. 3D), which contain a dye that fluoresces upon DNA-binding in cells with impraied membrane integrity due to cytotoxicity were performed in K562 cells grown in glucose-free media. The results are summarized in Table 2 (values are the mean±S.D. (n=3)).

[6] = molecular target: KDR (Homo sapiens (Human), UniProt P35968); assay: LanthaScreen Eu TR-FRET KDR competitive binding assay
Sequence of KDR (P35968 20-1356): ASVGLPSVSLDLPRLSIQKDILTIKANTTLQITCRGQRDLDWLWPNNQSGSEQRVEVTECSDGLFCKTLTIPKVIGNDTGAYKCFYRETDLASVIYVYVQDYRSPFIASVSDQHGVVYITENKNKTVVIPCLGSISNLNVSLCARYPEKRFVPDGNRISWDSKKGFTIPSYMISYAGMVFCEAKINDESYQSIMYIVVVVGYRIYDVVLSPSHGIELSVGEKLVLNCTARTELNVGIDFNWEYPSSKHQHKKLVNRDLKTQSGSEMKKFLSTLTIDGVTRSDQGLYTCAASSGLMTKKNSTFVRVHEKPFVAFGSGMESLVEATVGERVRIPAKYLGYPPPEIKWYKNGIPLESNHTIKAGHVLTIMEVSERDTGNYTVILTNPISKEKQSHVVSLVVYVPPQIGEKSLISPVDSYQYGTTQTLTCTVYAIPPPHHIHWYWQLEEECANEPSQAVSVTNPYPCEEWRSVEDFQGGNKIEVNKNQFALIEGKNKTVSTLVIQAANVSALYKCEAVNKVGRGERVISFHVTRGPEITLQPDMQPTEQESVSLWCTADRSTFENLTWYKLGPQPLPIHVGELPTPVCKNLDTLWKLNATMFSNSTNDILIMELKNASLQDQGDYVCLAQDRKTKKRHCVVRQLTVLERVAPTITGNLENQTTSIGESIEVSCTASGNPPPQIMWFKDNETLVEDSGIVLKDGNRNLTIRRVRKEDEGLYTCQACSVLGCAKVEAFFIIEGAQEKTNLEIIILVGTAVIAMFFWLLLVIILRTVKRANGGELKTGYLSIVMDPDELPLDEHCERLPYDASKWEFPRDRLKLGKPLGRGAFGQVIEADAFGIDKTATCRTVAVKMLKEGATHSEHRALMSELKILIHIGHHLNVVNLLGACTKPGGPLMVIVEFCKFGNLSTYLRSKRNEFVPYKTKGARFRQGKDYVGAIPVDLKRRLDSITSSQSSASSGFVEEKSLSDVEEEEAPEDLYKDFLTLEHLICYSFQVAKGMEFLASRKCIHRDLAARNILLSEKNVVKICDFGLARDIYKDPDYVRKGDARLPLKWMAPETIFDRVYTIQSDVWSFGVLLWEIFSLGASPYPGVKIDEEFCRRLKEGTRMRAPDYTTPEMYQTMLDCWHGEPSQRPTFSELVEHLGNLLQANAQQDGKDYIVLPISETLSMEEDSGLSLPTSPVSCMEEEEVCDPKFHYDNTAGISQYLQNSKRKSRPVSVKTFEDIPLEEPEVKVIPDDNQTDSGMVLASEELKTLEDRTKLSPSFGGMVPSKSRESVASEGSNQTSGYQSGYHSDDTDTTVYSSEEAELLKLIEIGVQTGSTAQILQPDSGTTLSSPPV

[7] = test system: K562 cells; assay: CellTiter-Glo cell viability assay in K562 cells (glucose-free media); type: cell-based; conditions: Homo sapiens, read-out: EC50 CellTiter Glo 24 h
Procedure: as §2, §3

[8] = mean±S.D. (n=3), ATP 8 μM, read-out: IC50 (nM) AMPK(α1)
[9] = read-out: EC50 CellTox Green 48 h, 48 h
[10] = read-out: IC50 (nM) KDR, mean±S.D. (n=3), competitive binding
[11] = read-out: EC50 CellTox Green 24 h, 24 h

## CCN(CC)CCNC(=O)c1c(C)[nH]c(/C=C2\C(=O)Nc3ccc(CCO)cc32)c1C [Compound 65]
[1]
  p-ACC level reduction across concentration range compared with sunitinib: improvements in cellular AMPK inhibition over sunitinib at all concentrations apart from 50 μM

## CCN(CC)CCNC(=O)c1c(C)[nH]c(/C=C2\C(=O)Nc3ccc(CCC(N)=O)cc32)c1C [Compound 67]
[1]
  p-ACC level reduction across concentration range compared with sunitinib: significant improvements in p-ACC level reduction with respect to sunitinib at both 3.125 mM and 12.5 mM

## Cc1[nH]c(/C=C2\C(=O)Nc3ccc(F)cc32)c(C)c1C(=O)NCCN [Compound No. 4, (Z)—N-(2-Aminoethyl)-5-((5-fluoro-2-oxoindolin-3-ylidene)methyl)-2,4-dimethyl-1H-pyrrole-3-carboxamide]
[2]; [8]
  IC50: 393 ± 27 nM
[3]
  IC50: 141 ± 33 nM

## Cc1[nH]c(/C=C2\C(=O)Nc3ccc(F)cc32)c(C)c1C(=O)NCCN(C)C [Compound No. 5, (Z)—N-(2-(Dimethylamino)ethyl)-5-((5-fluoro-2-oxoindolin-3-ylidene)methyl)-2,4-dimethyl-1H-pyrrole-3-carboxamide]
[2]; [8]
  IC50: 136 ± 16 nM
[3]
  IC50: 50.4 ± 17.9 nM
[4]
  EC50: 12600 ± 930 nM
[5]; [9]
  EC50: 13030 ± 40 nM
[6]; [10]
  IC50: 493 ± 24 nM

## CCNCCNC(=O)c1c(C)[nH]c(/C=C2\C(=O)Nc3ccc(F)cc32)c1C [Compound No. 6]
[2]; [8]
  IC50: 180 ± 24 nM
[3]
  IC50: 61.4 ± 12.7 nM
[4]
  EC50: 13600 ± 1690 nM
[7]
  EC50: 15500 ± 480 nM
[5]; [11]
  EC50: 12890 ± 110 nM
[5]; [9]
  EC50: 11900 ± 1580 nM
[6]; [10]
  IC50: 505 ± 18 nM

## Cc1[nH]c(/C=C2\C(=O)Nc3ccc(F)cc32)c(C)c1C(=O)NCCCN(C)C [Compound No. 7, (Z)—N-(3-(Dimethylamino)propyl)-5-((5-fluoro-2-oxoindolin-3-ylidene)methyl)-2,4-dimethyl-1H-pyrrole-3-carboxamide]
[2]; [8]
  IC50: 221 ± 31 nM
[3]
  IC50: 74.8 ± 3.1 nM

## CCN(CC)CCCNC(=O)c1c(C)[nH]c(/C=C2\C(=O)Nc3ccc(F)cc32)c1C [Compound No. 8, (Z)—N-(3-(Diethylamino)propyl)-5-((5-fluoro-2-oxoindolin-3-ylidene)methyl)-2,4-dimethyl-1H-pyrrole-3-carboxamide]
[2]; [8]
  IC50: 152 ± 22 nM
[3]
  IC50: 38.6 ± 10.6 nM
[4]
  EC50: 13500 ± 590 nM
[7]
  EC50: 18000 ± 320 nM
[5]; [9]
  EC50: 13270 ± 80 nM
[6]; [10]
  IC50: 480 ± 52 nM

## CCN(CC)CCNC(=O)c1c(C)[nH]c(/C=C2\C(=O)Nc3ccc(CCOC)cc32)c1C [Compound No. 9, (Z)—N-(2-(Diethylamino)ethyl)-5-((5-(2-methoxyethyl)-2-oxoindolin-3-ylidene)methyl)-2,4-dimethyl-1H-pyrrole-3-carboxamide]
[2]; [8]
  IC50: 296 ± 16 nM
[3]
  IC50: 96.6 ± 4.3 nM

## CCN(CC)CCNC(=O)c1c(C)[nH]c(/C=C2\C(=O)Nc3ccc(CCOC(C)=O)cc32)c1C [Compound No. 11, (Z)-2-(3-((4-((2-(Diethylamino)ethyl)carbamoyl)-3,5-dimethyl-1H-pyrrol-2-yl)methylene)-2-oxoindolin-5-yl)ethyl acetate]
[2]; [8]
  IC50: 418 ± 45 nM
[3]
  IC50: 111 ± 21 nM

## CCN(CC)CCNC(=O)c1c(C)[nH]c(/C=C2\C(=O)Nc3ccc(CCN(C)C)cc32)c1C [Compound No. 12, (Z)—N-(2-(Diethylamino)ethyl)-5-((5-(2-(dimethylamino)ethyl)-2-oxoindolin-3-ylidene)methyl)-2,4-dimethyl-1H-pyrrole-3-carboxamide]
[2]; text value in μM, read-out: AMPKα1 IC50
  IC50: 2100 ± 440 nM
[3]
  IC50: 154 ± 53 nM

## CCN(CC)CCNC(=O)c1c(C)[nH]c(/C=C2\C(=O)Nc3ccc(CCN=[N+]=[N-])cc32)c1C [Compound No. 13, (Z)-5-((5-(2-Azidoethyl)-2-oxoindolin-3-ylidene)methyl)-N-(2-(diethylamino)ethyl)-2,4-dimethyl-1H-pyrrole-3-carboxamide]
[2]; [8]
  IC50: 139 ± 13 nM
[3]
  IC50: 101 ± 20 nM
[4]
  EC50: 3830 ± 50 nM
[7]
  EC50: 4860 ± 160 nM
[5]; [9]
  EC50: 4810 ± 80 nM
[6]; read-out: KDR IC50, values in μM
  IC50: 2260 ± 110 nM

## CCN(CC)CCNC(=O)c1c(C)[nH]c(/C=C2\C(=O)Nc3ccc(CCNC(C)=O)cc32)c1C [Compound No. 14, (Z)-5-((5-(2-Acetamidoethyl)-2-oxoindolin-3-ylidene)methyl)-N-(2-(diethylamino)ethyl)-2,4-dimethyl-1H-pyrrole-3-carboxamide]
[2]; [8]
  IC50: 184 ± 11 nM
[3]
  IC50: 108 ± 17 nM
[6]; [10]
  IC50: 2160 ± 101 nM

## CCN(CC)CCNC(=O)c1c(C)[nH]c(/C=C2\C(=O)Nc3ccc(C#N)cc32)c1C [Compound No. 17, (Z)-5-((5-Cyano-2-oxoindolin-3-ylidene)methyl)-N-(2-(diethylamino)ethyl)-2,4-dimethyl-1H-pyrrole-3-carboxamide]
[2]; [8]
  IC50: 93 ± 8 nM
[3]
  IC50: 16.2 ± 7.4 nM
[7]
  EC50: 19900 ± 1210 nM
[5]; [9]
  EC50: 13600 ± 350 nM
[6]; [10]
  IC50: 391 ± 22 nM

## CCN(CC)CCNC(=O)c1c(C)[nH]c(/C=C2\C(=O)Nc3ccc(CNC(N)=O)cc32)c1C [Compound No. 18, (Z)—N-(2-(Diethylamino)ethyl)-2,4-dimethyl-5-((2-oxo-5-(ureidomethyl)indolin-3-ylidene)methyl)-1H-pyrrole-3-carboxamide]
[2]; [8]
  IC50: 205 ± 52 nM
[3]
  IC50: 83.6 ± 7 nM

## CCN(CC)CCNC(=O)c1c(C)[nH]c(/C=C2\C(=O)Nc3ccccc32)c1C [Compound No. 19, (Z)—N-(2-(Diethylamino)ethyl)-2,4-dimethyl-5-((2-oxoindolin-3-ylidene)methyl)-1H-pyrrole-3-carboxamide]
[2]; [8]
  IC50: 246 ± 11 nM
[3]
  IC50: 88.5 ± 7.1 nM

## CCN(CC)CCNC(=O)c1c(C)[nH]c(/C=C2\C(=O)Nc3cc(F)ccc32)c1C [Compound No. 20, (Z)—N-(2-(Diethylamino)ethyl)-5-((6-fluoro-2-oxoindolin-3-ylidene)methyl)-2,4-dimethyl-1H-pyrrole-3-carboxamide]
[2]; [8]
  IC50: 240 ± 37 nM
[3]
  IC50: 49.4 ± 22.1 nM
[4]
  EC50: 2850 ± 220 nM
[5]; [9]
  EC50: 7150 ± 350 nM
[6]; [10]
  IC50: 189 ± 7 nM

## CCN(CC)CCNC(=O)c1c(C)[nH]c(/C=C2\C(=O)Nc3cc(Cl)ccc32)c1C [Compound No. 21, (Z)-5-((6-Chloro-2-oxoindolin-3-ylidene)methyl)-N-(2-(diethylamino)ethyl)-2,4-dimethyl-1H-pyrrole-3-carboxamide]
[2]; [8]
  IC50: 217 ± 37 nM
[3]
  IC50: 65.1 ± 12.3 nM
[7]
  EC50: 3830 ± 460 nM
[5]; [11]
  EC50: 5240 ± 220 nM
[5]; [9]
  EC50: 4180 ± 410 nM
[6]; [10]
  IC50: 206 ± 7 nM

## CCN(CC)CCNC(=O)c1c(C)[nH]c(/C=C2\C(=O)Nc3cc(Br)ccc32)c1C [Compound No. 22, (Z)-5-((6-Bromo-2-oxoindolin-3-ylidene)methyl)-N-(2-(diethylamino)ethyl)-2,4-dimethyl-1H-pyrrole-3-carboxamide]
[2]; [8]
  IC50: 208 ± 33 nM
[3]
  IC50: 82.5 ± 27.9 nM

## CCc1ccc2c(c1)NC(=O)/C2=C\c1[nH]c(C)c(C(=O)NCCN(CC)CC)c1C [Compound No. 24, (Z)—N-(2-(Diethylamino)ethyl)-5-((6-ethyl-2-oxoindolin-3-ylidene)methyl)-2,4-dimethyl-1H-pyrrole-3-carboxamide]
[2]; [8]
  IC50: 348 ± 71 nM

## CCN(CC)CCNC(=O)c1c(C)[nH]c(/C=C2\C(=O)Nc3cc(C(C)C)ccc32)c1C [Compound No. 25, N-(2-(Diethylamino)ethyl)-5-((6-isopropyl-2-oxoindolin-3-ylidene)methyl)-2,4-dimethyl-1H-pyrrole-3-carboxamide]
[2]; read-out: AMPK(α1) % inhibition at 20 μM
  inhibition at 20 µM: 70%

Reference: patent US12435059B2, “AMP-activated protein kinase inhibitors and methods of making and using the same” (The Regents of the University of Colorado, priority 2019, dated 2025)
